According to ChEMBL document CHEMBL1909046, “DrugMatrix in vitro pharmacology data”:

Target: T1, Nitric oxide synthase, inducible (Mus musculus, UniProt P29477);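 note: inhibition of iNOS enzyme activity measured with L-arginine as substrate; in other assays of this panel Not Active means under 50% inhibition at 10 µM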
T1 sequence (P29477 whole entry): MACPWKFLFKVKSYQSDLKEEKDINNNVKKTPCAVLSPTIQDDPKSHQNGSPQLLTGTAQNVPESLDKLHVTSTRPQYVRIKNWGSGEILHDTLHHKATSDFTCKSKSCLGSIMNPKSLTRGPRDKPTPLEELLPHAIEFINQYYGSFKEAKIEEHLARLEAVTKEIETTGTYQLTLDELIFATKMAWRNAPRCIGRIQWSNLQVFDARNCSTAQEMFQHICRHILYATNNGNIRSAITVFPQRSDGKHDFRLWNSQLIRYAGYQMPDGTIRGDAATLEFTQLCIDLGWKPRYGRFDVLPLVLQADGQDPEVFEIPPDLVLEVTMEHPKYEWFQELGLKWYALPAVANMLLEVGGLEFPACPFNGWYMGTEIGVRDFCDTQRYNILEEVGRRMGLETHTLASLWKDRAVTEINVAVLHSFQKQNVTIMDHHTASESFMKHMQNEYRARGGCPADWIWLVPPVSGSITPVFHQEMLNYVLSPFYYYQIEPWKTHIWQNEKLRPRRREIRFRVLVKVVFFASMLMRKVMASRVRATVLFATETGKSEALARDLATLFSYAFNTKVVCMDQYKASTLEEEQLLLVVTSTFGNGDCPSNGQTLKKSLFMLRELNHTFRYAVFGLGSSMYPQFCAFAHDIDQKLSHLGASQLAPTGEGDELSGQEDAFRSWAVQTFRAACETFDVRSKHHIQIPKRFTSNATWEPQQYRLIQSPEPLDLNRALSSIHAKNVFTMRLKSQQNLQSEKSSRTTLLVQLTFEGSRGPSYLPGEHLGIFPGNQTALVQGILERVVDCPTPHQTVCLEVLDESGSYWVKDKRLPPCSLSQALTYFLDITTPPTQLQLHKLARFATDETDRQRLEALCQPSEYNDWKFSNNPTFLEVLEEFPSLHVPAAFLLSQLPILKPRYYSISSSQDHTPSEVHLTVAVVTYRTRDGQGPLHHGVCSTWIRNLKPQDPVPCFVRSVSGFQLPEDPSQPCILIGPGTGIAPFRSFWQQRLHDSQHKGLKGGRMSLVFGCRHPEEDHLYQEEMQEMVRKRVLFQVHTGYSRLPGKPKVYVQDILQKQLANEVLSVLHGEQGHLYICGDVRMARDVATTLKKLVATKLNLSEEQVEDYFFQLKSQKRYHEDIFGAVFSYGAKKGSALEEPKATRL
Assay: not given
Design: species or system Escherichia coli
Details: not given

| SMILES | IC50 |
| --- | --- |
| COc1cc2c3cc1Oc1cc(ccc1O)C[C@@H]1c4c(cc(OC)c(O)c4Oc4ccc(cc4)C[C@@H]3N(C)CC2)CC[N+]1(C)C.[Cl-] | Not Active |
| CN(Cc1ccc(C(C)(C)C)cc1)Cc1cccc2ccccc12 [BUTENAFINE] | Not Active |
| Sc1ncnc2nc[nH]c12 [MERCAPTOPURINE ANHYDROUS] | Not Active |
| Cc1ccc(N(CC2=NCCN2)c2cccc(O)c2)cc1 [PHENTOLAMINE] | Not Active |
| CC(C)(Oc1ccc(Cl)cc1)C(=O)O [CLOFIBRIC ACID] | Not Active |
| C[C@]12CC[C@@H]3c4ccc(O)cc4CC[C@H]3[C@@H]1CCC2=O [ESTRONE] | Not Active |
| CN(C)c1nc(N(C)C)nc(N(C)C)n1 [ALTRETAMINE] | Not Active |
| CCCN1C[C@H](CSC)C[C@@H]2c3cccc4[nH]cc(c34)C[C@H]21 [PERGOLIDE] | Not Active |
| CN(C)CCCN1c2ccccc2Sc2ccc(Cl)cc21 [CHLORPROMAZINE] | Not Active |

Target: Prostaglandin G/H synthase 1 (Homo sapiens, UniProt P23219);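 note: inhibition of COX-1 enzyme activity, with arachidonic acid supplied as substrate; in other assays of this panel Not Active means under 50% inhibition at 10 µM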
Assay: biochemical
Format: tissue-based, Platelet
Details: platelet

Chain of Prostaglandin G/H synthase 1 (P23219 whole entry): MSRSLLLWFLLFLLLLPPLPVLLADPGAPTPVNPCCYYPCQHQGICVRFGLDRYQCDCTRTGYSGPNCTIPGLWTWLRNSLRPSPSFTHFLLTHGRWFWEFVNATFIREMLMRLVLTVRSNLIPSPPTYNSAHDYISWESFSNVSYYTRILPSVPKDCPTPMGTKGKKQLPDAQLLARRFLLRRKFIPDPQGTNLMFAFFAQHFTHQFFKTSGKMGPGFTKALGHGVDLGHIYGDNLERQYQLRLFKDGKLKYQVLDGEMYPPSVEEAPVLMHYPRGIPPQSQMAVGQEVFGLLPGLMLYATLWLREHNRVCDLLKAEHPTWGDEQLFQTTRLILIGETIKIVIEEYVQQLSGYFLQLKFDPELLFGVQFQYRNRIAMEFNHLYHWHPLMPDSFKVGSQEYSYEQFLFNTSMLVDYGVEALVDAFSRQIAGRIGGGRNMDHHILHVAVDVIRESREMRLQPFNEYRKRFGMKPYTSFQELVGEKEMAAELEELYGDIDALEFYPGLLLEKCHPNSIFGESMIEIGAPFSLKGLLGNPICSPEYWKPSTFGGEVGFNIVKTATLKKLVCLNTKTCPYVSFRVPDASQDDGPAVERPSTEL

| SMILES | IC50 |
| --- | --- |
| COc1cc2c3cc1Oc1cc(ccc1O)C[C@@H]1c4c(cc(OC)c(O)c4Oc4ccc(cc4)C[C@@H]3N(C)CC2)CC[N+]1(C)C.[Cl-] | Not Active |
| CN(Cc1ccc(C(C)(C)C)cc1)Cc1cccc2ccccc12 [BUTENAFINE] | Not Active |
| Cc1ccc(N(CC2=NCCN2)c2cccc(O)c2)cc1 [PHENTOLAMINE] | Not Active |
| CC(C)(Oc1ccc(Cl)cc1)C(=O)O [CLOFIBRIC ACID] | Not Active |
| C[C@]12CC[C@@H]3c4ccc(O)cc4CC[C@H]3[C@@H]1CCC2=O [ESTRONE] | Not Active |
| CN(C)c1nc(N(C)C)nc(N(C)C)n1 [ALTRETAMINE] | Not Active |
| CCCN1C[C@H](CSC)C[C@@H]2c3cccc4[nH]cc(c34)C[C@H]21 [PERGOLIDE] | Not Active |
| CN(C)CCCN1c2ccccc2Sc2ccc(Cl)cc21 [CHLORPROMAZINE] | Not Active |

Same assay, conditions: read-out: IC50

| SMILES | IC50 |
| --- | --- |
| Sc1ncnc2nc[nH]c12 [MERCAPTOPURINE ANHYDROUS] | 16.2 µM |

Test system: not listed separately
Assay: DRUGMATRIX: Phosphodiesterase PDE4 enzyme inhibition (substrate: [3H]cAMP + cAMP)
Details: u-937; Not Active = under 50% inhibition at 10 µM

| SMILES | IC50 | Ki |
| --- | --- | --- |
| COc1cc2c3cc1Oc1cc(ccc1O)C[C@@H]1c4c(cc(OC)c(O)c4Oc4ccc(cc4)C[C@@H]3N(C)CC2)CC[N+]1(C)C.[Cl-] | Not Active | Not Active |
| CN(Cc1ccc(C(C)(C)C)cc1)Cc1cccc2ccccc12 [BUTENAFINE] | Not Active | Not Active |
| Sc1ncnc2nc[nH]c12 [MERCAPTOPURINE ANHYDROUS] | Not Active | Not Active |
| Cc1ccc(N(CC2=NCCN2)c2cccc(O)c2)cc1 [PHENTOLAMINE] | Not Active | Not Active |
| CC(C)(Oc1ccc(Cl)cc1)C(=O)O [CLOFIBRIC ACID] | Not Active | Not Active |
| C[C@]12CC[C@@H]3c4ccc(O)cc4CC[C@H]3[C@@H]1CCC2=O [ESTRONE] | Not Active | Not Active |
| CN(C)c1nc(N(C)C)nc(N(C)C)n1 [ALTRETAMINE] | Not Active | Not Active |
| CCCN1C[C@H](CSC)C[C@@H]2c3cccc4[nH]cc(c34)C[C@H]21 [PERGOLIDE] | Not Active | Not Active |
| CN(C)CCCN1c2ccccc2Sc2ccc(Cl)cc21 [CHLORPROMAZINE] | Not Active | Not Active |

Target: Cytochrome P450 2D6 (Homo sapiens, UniProt P10635); note: in other assays of this panel Not Active means under 50% inhibition at 10 µM
Assay: not given
Details: bti-tn-5b1-4

Chain of Cytochrome P450 2D6 (P10635 whole entry): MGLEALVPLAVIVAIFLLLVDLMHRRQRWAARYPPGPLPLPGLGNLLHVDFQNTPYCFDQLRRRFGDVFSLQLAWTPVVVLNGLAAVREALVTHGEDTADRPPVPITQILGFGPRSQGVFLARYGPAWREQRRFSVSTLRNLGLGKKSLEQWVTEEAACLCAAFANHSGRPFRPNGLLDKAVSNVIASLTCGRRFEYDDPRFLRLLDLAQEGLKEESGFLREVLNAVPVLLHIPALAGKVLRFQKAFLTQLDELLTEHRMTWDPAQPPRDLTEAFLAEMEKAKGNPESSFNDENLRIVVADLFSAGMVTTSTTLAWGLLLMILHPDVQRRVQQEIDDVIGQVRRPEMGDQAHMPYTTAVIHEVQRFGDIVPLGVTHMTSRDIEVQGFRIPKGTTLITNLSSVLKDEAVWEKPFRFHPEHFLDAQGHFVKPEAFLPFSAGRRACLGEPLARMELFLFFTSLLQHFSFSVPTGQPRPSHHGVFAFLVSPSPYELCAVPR

| SMILES | IC50 | Ki |
| --- | --- | --- |
| COc1cc2c3cc1Oc1cc(ccc1O)C[C@@H]1c4c(cc(OC)c(O)c4Oc4ccc(cc4)C[C@@H]3N(C)CC2)CC[N+]1(C)C.[Cl-] | Not Active | Not Active |
| Sc1ncnc2nc[nH]c12 [MERCAPTOPURINE ANHYDROUS] | Not Active | Not Active |

Target: T2, Adenosine receptor A3 (Homo sapiens, UniProt P0DMS8);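 note: radioligand binding assay with AB-MECA serving as the labeled ligand; in other assays of this panel Not Active means under 50% inhibition at 10 µM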
T2 sequence (P0DMS8 whole entry): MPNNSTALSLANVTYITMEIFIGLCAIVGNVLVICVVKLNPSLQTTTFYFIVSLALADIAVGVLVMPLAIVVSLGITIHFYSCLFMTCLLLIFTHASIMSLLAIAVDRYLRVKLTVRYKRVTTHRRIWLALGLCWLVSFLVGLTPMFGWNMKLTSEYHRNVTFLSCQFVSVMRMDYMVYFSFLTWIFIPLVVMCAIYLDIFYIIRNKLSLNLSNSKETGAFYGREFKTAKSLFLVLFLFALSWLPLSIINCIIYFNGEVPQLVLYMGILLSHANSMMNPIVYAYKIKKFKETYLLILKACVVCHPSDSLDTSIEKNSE
Assay: not given
Format: cell membranes, CHO-K1, Membrane
Details: cho-k1

| SMILES | IC50 |
| --- | --- |
| COc1cc2c3cc1Oc1cc(ccc1O)C[C@@H]1c4c(cc(OC)c(O)c4Oc4ccc(cc4)C[C@@H]3N(C)CC2)CC[N+]1(C)C.[Cl-] | Not Active |
| CN(Cc1ccc(C(C)(C)C)cc1)Cc1cccc2ccccc12 [BUTENAFINE] | Not Active |
| Sc1ncnc2nc[nH]c12 [MERCAPTOPURINE ANHYDROUS] | Not Active |
| Cc1ccc(N(CC2=NCCN2)c2cccc(O)c2)cc1 [PHENTOLAMINE] | Not Active |
| CC(C)(Oc1ccc(Cl)cc1)C(=O)O [CLOFIBRIC ACID] | Not Active |
| C[C@]12CC[C@@H]3c4ccc(O)cc4CC[C@H]3[C@@H]1CCC2=O [ESTRONE] | Not Active |
| CN(C)c1nc(N(C)C)nc(N(C)C)n1 [ALTRETAMINE] | Not Active |
| CCCN1C[C@H](CSC)C[C@@H]2c3cccc4[nH]cc(c34)C[C@H]21 [PERGOLIDE] | Not Active |
| CN(C)CCCN1c2ccccc2Sc2ccc(Cl)cc21 [CHLORPROMAZINE] | Not Active |

Test system: not listed separately
Assay: DRUGMATRIX: ATPase, Na+/K+ enzyme inhibition (substrate: ATP)
Format: tissue-based, Sus scrofa, Heart
Details: Not Active = under 50% inhibition at 10 µM

| SMILES | IC50 | Ki |
| --- | --- | --- |
| COc1cc2c3cc1Oc1cc(ccc1O)C[C@@H]1c4c(cc(OC)c(O)c4Oc4ccc(cc4)C[C@@H]3N(C)CC2)CC[N+]1(C)C.[Cl-] | Not Active | Not Active |
| CN(Cc1ccc(C(C)(C)C)cc1)Cc1cccc2ccccc12 [BUTENAFINE] | Not Active | Not Active |
| Sc1ncnc2nc[nH]c12 [MERCAPTOPURINE ANHYDROUS] | Not Active | Not Active |
| Cc1ccc(N(CC2=NCCN2)c2cccc(O)c2)cc1 [PHENTOLAMINE] | Not Active | Not Active |
| CC(C)(Oc1ccc(Cl)cc1)C(=O)O [CLOFIBRIC ACID] | Not Active | Not Active |
| C[C@]12CC[C@@H]3c4ccc(O)cc4CC[C@H]3[C@@H]1CCC2=O [ESTRONE] | Not Active | Not Active |
| CN(C)c1nc(N(C)C)nc(N(C)C)n1 [ALTRETAMINE] | Not Active | Not Active |
| CCCN1C[C@H](CSC)C[C@@H]2c3cccc4[nH]cc(c34)C[C@H]21 [PERGOLIDE] | Not Active | Not Active |
| CN(C)CCCN1c2ccccc2Sc2ccc(Cl)cc21 [CHLORPROMAZINE] | Not Active | Not Active |

Target: T3, Neutrophil elastase (Homo sapiens, UniProt P08246)
T3 sequence (P08246 whole entry): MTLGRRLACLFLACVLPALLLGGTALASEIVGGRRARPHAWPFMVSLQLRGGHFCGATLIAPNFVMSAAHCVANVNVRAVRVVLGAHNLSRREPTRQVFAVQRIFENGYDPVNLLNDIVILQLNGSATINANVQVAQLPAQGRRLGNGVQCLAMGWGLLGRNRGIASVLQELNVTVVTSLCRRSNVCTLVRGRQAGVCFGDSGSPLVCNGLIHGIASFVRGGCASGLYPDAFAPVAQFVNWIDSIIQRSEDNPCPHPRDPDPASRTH
Assay: not given
Format: tissue-based
Details: not given

| SMILES | IC50 |
| --- | --- |
| COc1cc2c3cc1Oc1cc(ccc1O)C[C@@H]1c4c(cc(OC)c(O)c4Oc4ccc(cc4)C[C@@H]3N(C)CC2)CC[N+]1(C)C.[Cl-] | Not Active |
| CN(Cc1ccc(C(C)(C)C)cc1)Cc1cccc2ccccc12 [BUTENAFINE] | Not Active |
| Sc1ncnc2nc[nH]c12 [MERCAPTOPURINE ANHYDROUS] | Not Active |
| Cc1ccc(N(CC2=NCCN2)c2cccc(O)c2)cc1 [PHENTOLAMINE] | Not Active |
| CC(C)(Oc1ccc(Cl)cc1)C(=O)O [CLOFIBRIC ACID] | Not Active |
| C[C@]12CC[C@@H]3c4ccc(O)cc4CC[C@H]3[C@@H]1CCC2=O [ESTRONE] | Not Active |
| CN(C)c1nc(N(C)C)nc(N(C)C)n1 [ALTRETAMINE] | Not Active |
| CCCN1C[C@H](CSC)C[C@@H]2c3cccc4[nH]cc(c34)C[C@H]21 [PERGOLIDE] | Not Active |
| CN(C)CCCN1c2ccccc2Sc2ccc(Cl)cc21 [CHLORPROMAZINE] | Not Active |
